Key:
[1] = test system: hematopoietic stem cells derived from cord blood; assay: Enhancement of hematopoietic stem cells from cord blood cultured with Compound 1.008, flow cytometry up to 19 days (Example 34); type: cell-based
Protocol: A frozen cord blood sample was thawed and gradually brought to room temperature. Thawed cord blood was incubated in an in vitro culture media of Alpha MEM without phenol red, 10% (v/v) heat inactivated fetal bovine serum (FBS). Four samples were tested: Base conditions, +SF Conditions, +1.008 Conditions, and +1.008/+ER conditions. The components included in each condition is described in Table 4. Each condition tested also included an antibiotic solution that includes penicillin, streptomycin, and amphotericin B to avoid contamination.
(§1) Cultures were incubated at 3% oxygen (controlled by nitrogen) and 5% CO2.
Small molecule components were added separately and fresh each time the media needs to be refreshed. Cytokines can be stored together. Media renewal should occur at least every few days.
On the days indicated varying amounts of the cell culture was removed for data analysis (flow cytometry using a BD FACS ARIA II) and to avoid overcrowding of cells. The culture volume was replenished with fresh media according to the conditions tested. The data reported accounts for the dilution factor introduced in this procedure.

[2] = test system: CD34+ cells from non-mobilized peripheral blood; assay: Long-term (21 days) expansion with Compound 1.010, non-mobilized peripheral blood (Example 36); type: cell-based, human; conditions: Compound 1.010 8 μM
Protocol: CD34+ cells from non-mobilized peripheral blood were purchased from STEMCELL Technologies. Primary human CD34+ cells were isolated from blood samples using positive immunomagnetic separation techniques.
Cryspreserved CD34+ cell samples from each source were thawed and gradually brought to room temperature. Samples were washed then placed in overnight culture in StemSpan with 100 ng/ml each of FLT3L, TPO, SCF, and IL-6.
as §1
Twenty-four hours later (day 1), cells were counted and immunophenotyped (flow cytometry on an Invitrogen Attune NxT cytometer). […] Exact cell numbers dispensed per condition were quantified for later calculations of fold change from day 1.
Wells were analyzed at days 7 and 10, flasks were analyzed at 14 and 21 days of incubation. Cell numbers and phenotypes were quantified with flow cytometry. […] An additional seven days later (day 21 of culture), cell numbers and phenotypes were again quantified with flow cytometry. Cell numbers calculated at day 21 account for the passaging of the cells.
Conditions in 96-well plates were prepared in quadruplicate; conditions in flasks were prepared in duplicate. On the above-indicated number of days in culture, cells from wells or flasks were collected and phenotypes were analyzed (flow cytometry on an Invitrogen Attune NxT cytometer).

[3] = test system: CD34+ cells isolated from donor peripheral blood (non-mobilized); assay: Enhancement of hematopoietic stem cells from non-mobilized peripheral blood, flow cytometry, fold change days 2 to 7 (Example 33); type: cell-based; conditions: 8 μM sample compound, normalized fold change days 2 to 7, 3% oxygen
Protocol: CD34+ cells were isolated from donor peripheral blood. Standard buffy coat separation using ficoll paque was performed. Cells were pelleted and incubated with unlabeled CD64 antibody. Cells then underwent negative depletion using biotinylated CD2, CD3, CD4, CD5, CD8, CD11b, CD14, CD16, CD19, CD20, CD45RA, CD56, CD235 (in some examples CD15, CD25 and other lineage specific antibodies may also be used). Cells which bind these antibodies are depleted using streptavidin beads. The enriched progenitor pool then undergoes cell sorting for CD34+.
Isolated CD34+ cells were incubated in an in vitro culture media of Alpha MEM without phenol red with 10% (v/v) heat inactivated fetal bovine serum (FBS). When testing compounds of Formula I, two internal controls were used: a positive control (+SF conditions) and a baseline control (i.e. basic conditions (“cytokines only”)). The media components and concentrations used for the compounds tested are described in Table 2. The culture also included an antibiotic solution that includes penicillin, streptomycin, and amphotericin B to avoid contamination. Controls were included because the amount of expansion in samples obtained varies from individual to individual. […]
Table 3, below, summarizes the relative expansive effect of Compound 1.001 to 1.023 (sample compounds) at the indicated concentration. […] It is calculated as shown below: […]

Compound: CC(C)(C)C(=O)Nc1ccc2c(c1)C(=O)c1cc(N)ccc1-2 [Compound 1.008, N-(7-amino-9-oxo-9H-fluoren-2-yl)pivalamide]
- maintenance and expansion of hematopoietic stem cells in culture ([1]; +1.008 Conditions (250 nM), 19 days in culture): maintained and continue to expand
- total number of CD34+, CD34+/CD133+, CD34+/CD133+/CD90+ and CD34+/CD133+/CD90+/CD38 low/− cells (flow cytometric cell counts) ([1]; FIG. 24B-E, versus Base and +SF conditions): increase
- increase in CD34+ cells from day 2 ([1]; after 19 days in culture, Compound 1.008 250 nM, 3% oxygen, FIG. 25B): greater than 50 fold
- increase in CD34+/CD133+ cells from day 2 ([1]; after 19 days in culture, Compound 1.008 250 nM, 3% oxygen, FIG. 25C): greater than 50 fold
- increase in CD34+/CD133+/CD90+ cells from day 2 ([1]; after 19 days in culture, Compound 1.008 250 nM, 3% oxygen, FIG. 25D): ~20 fold
- increase in CD34+/CD133+/CD90+/CD38low/− cells from day 2 ([1]; after 19 days in culture, Compound 1.008 250 nM, 3% oxygen, FIG. 25E): > 12 fold

Compound: CC(C)(C)C(=O)Nc1ccc2c(c1)C(O)c1ccccc1-2 (centres unmarked) [Compound 1.010]
- expansion of CD34+ cells ([2]; fold change from day 1, up to 21 days in culture, 3% oxygen, FIG. 54B): greater than nine-fold
- expansion compared with cytokines alone ([2]; up to 21 days): far surpasses

Compound: CC(C)(C)C(=O)Nc1ccc2c(c1)C(=O)CC2 [Compound 1.019]
- CD90 effect (relative expansive effect on CD34+/CD133+/CD90+ cells) [3]: ++ (0.2 ≤ x < 0.55)
- CD133 effect (relative expansive effect on CD34+/CD133+ cells) [3]: ++ (0.2 ≤ x < 0.55)

Compound: ER50891 [reference compound]
- fold increase levels on addition of ER50891 to +1.008 conditions ([1]; ER50891 100 nM with Compound 1.008 250 nM, 19 days): even further improved

— patent US11459293B2, “Compositions and methods of making expanded hematopoietic stem cells using derivatives of fluorene” (ImmuneBridge Inc., priority 2017, dated 2022)
